Data published in EP0466548A1, “1,2,3,4,5,6-Hexahydroazepino[4,5-b]indole and 1,2,3,4-tetrahydro-beta-carbolines, processes for their preparation, and pharmaceutical compositions containing them” (ADIR ET COMPAGNIE, priority 1990, dated 1992).

Tests used:
[1] = system: rats mâles, Sprague Dawley; assay: Anti-inflammatory activity: carrageenan-induced paw oedema (plethysmography); type: in vivo, rat; conditions: 30 to 60 min before carrageenan, paw volume 3 h after carrageenan
Method: Le potentiel antiinflammatoire des composés a été recherché selon un modèle d'inflammation aigue provoquée par injection sous cutanée de carragénine au niveau de la patte postérieure du rat selon une technique inspirée de WINTER et coll. […] J. Phamacol.
Les rats mâles, Sprague Dawley de 200 à 300 g sont randomisés en lots de 10 et reçoivent les substances à tester par administration intra péritonéale 30 à 60 minutes avant l'injection locale au niveau de la patte arrière gauche de 0,1 ml d'une suspension à 0,5 % de Carragénine dans du sérum physiologique stérile.
La patte arrière droite servant de témoin, reçoit une injection de sérum physiologique.
Trois heures après l'injection de la Carragénine, les animaux sont anesthésiés de façon profonde au Narcorem R et le volume des deux pattes arrières mesuré par Pléthysmographie
Les résultats sont exprimés en pourcentage de variation de volume v% : v% =(volume patte gauche - volume patte droite)/(volume patte droite) [formula] l'activité antiinflammatoire AAI% est définie par : [drawing 54]

souris = assay: Analgesic activity: Acetic Acid Writhing test; type: in vivo; conditions: 50 mg/Kg intraperitoneal, 30 min before 0,3 cm³ acetic acid 1% i.p.; control 23 ± 14
Method: Le potentiel analgésique de ces produits a été recherché selon le test dit "Acetic Acid Writhing" qui est basé sur le comptage des crampes abdominales induites chez la souris par injection intra péritonéale d'acide acétique (GAIRIN et Coll J. Pharmacol. Exp. Ther 245, 955 (1988))
Les souris randomisées en lots de 10 reçoivent les produits à tester par voie intra péritonéale 30 minutes avant l'administration intra péritonéale de 0,3 cm³ d'acide acétique à 1%
Le nombre de crampes est compté entre la 5ème et 20ème minutes après l'injection d'acide acétique.

rat = assay: Anxiolytic activity: elevated plus maze; type: in vivo; conditions: 60 min before test; for nb total d'entrées: 5 min test, control 14 ± 2; for % du temps passé dans le bras ouvert: control 22 % ± 5 %; for % d'entrées dans le bras ouvert: control 28 % ± 5 %
Method: Le potentiel anxiolytique de ces produits a été recherché selon le test "elevated plus maze".
Ce test permet d'étudier le comportement du rat, traité ou non, dans une situation de choix entre un espace clos rassurant ("bras clos") et un espace ouvert générateur d'anxiété ("bras ouvert").
Le test consiste à compter le nombre d'entrées dans chaque bras du labyrinthe durant 5 minutes et à mesurer le temps passé dans le "bras ouvert".
Les rats sont randomisés en lots de 8 et reçoivent les produits à tester par administration intrapéritonéale 60 minutes avant le début du test.

| Compound | AAI% ([1]; 50 mg/Kg intraperitoneal) [%] | Nombre de crampes par minute (entre la 5ème et la 20ème minutes) (souris) | nb total d'entrées (rat; 50 mg/Kg IP) | % du temps passé dans le bras ouvert (rat; 50 mg/Kg IP) | % d'entrées dans le bras ouvert (rat; 50 mg/Kg IP) | AAI% ([1]; 25 mg/Kg intraperitoneal) [%] | nb total d'entrées (rat; 100mg/Kg IP) | % du temps passé dans le bras ouvert (rat; 100mg/Kg IP) | % d'entrées dans le bras ouvert (rat; 100mg/Kg IP) |
| --- | --- | --- | --- | --- | --- | --- | --- | --- | --- |
| COC(=O)[C@@H]1Cc2c([nH]c3ccccc23)C2(CCCCC2)N1 [[ 3-METHOXYCARBONYLE 1,2,3,4-TETRAHYDRO-β-CARBOLINE (3 S)]-1-SPIRO-CYCLOHEXANE] | 14 | 1 ± 1 | 18 ± 2 | 40 % ± 6% | 42 % ± 4% | – | – | – | – |
| COC(=O)[C@@H]1Cc2c([nH]c3ccccc23)C2(CCN(C)CC2)N1 [[ 3-METHOXYCARBONYLE 1,2,3,4-TETRAHYDRO-β-CARBOLINE (3 S)]-1-SPIRO-4′- [ 1-METHYL PIPERIDINE]] | – | – | – | – | – | 14 | 18 ± 1 | 41 % ± 4% | 44 % ± 3% |
